Read-outs that look alike come from different tables or passages of the source.
Tests used:
[1] = system: E. coli HM22 normal and persister cells; conditions: for intracellular accumulation, persister cells relative to normal cells: treated at 100 μg/mL, reporter bioassay
[2] = system: E. coli HM22; assay: IC50 of killing, individual treatments vs co-treatment; type: cell-based; conditions: Escherichia coli, read-out: IC50 (concentration required to kill 50% of the population)
[3] = system: E. coli HM22 persister cells; assay: Concurrent treatment with ampicillin in LB compared with ampicillin alone; type: cell-based, Escherichia coli; conditions: concurrent 100 μg/mL ampicillin and 100 μg/mL test antibiotic
Source text: E. coli HM22 was used as the model strain in this test because it contains the hipA7 allele that leads to high-level persistence.

[4] = Validation of chloroform extraction (partition coefficient); conditions: concentration in chloroform phase over aqueous phase
Experimental: To validate if chloroform is effective in extracting the antibiotics after cell lysis, a validation test was performed. Briefly, 100 μL of antibiotic solution was mixed with 100 μL chloroform in a microcentrifuge tube by vortexing. Then the solution was centrifuged for 5 min at 5,000×g. […] Each phase was collected separately and evaporated overnight in a desiccator. […] The samples were then transferred to a 96-well plate where absorbance readings were measured using an Epoch 2 Microplate Spectrophotometer (BioTek, Winooski, VT, USA). […] The concentrations were then calculated by comparing with a standard curve of absorbance with known concentrations of corresponding antibiotic.

[5] = system: AcrAB-TolC mutants; assay: Killing of efflux mutants compared with wild-type (in words); type: cell-based, Escherichia coli; conditions: normal cells of ΔacrA, ΔacrB, ΔtolC
[6] = system: E. coli HM22 normal cells; assay: Killing of normal (exponential phase) cells, CFU by drop plate; type: cell-based, Escherichia coli; conditions: for normal cells killed: 100 μg/mL, 1 h in PBS
[7] = system: E. coli HM22 persister cells; assay: Growth and CFU of treated persister cells during wake-up in LB
Experimental: At each designated time point, 1 mL of the cell culture was collected, washed with PBS, and centrifuged at a speed of 13,000 rpm for 3 min. Treated persister cells and untreated controls were washed and resuspended with LB medium supplemented with DPA, and incubated at 37° C. with shaking at 200 rpm. At each designated time point, samples were collected to quantify intracellular antibiotic concentration as described above and to determine growth by measuring OD600.

[8] = system: E. coli HM22 persister cells; type: cell-based, Escherichia coli; conditions: for persister cells killed: 1 h in PBS, relative to untreated
[9] = system: purified 70S ribosome; conditions: read-out: IC50 (concentration of the antibiotic needed to inhibit 50% of the purified 70S ribosome); cited from earlier work
[10] = system: E. coli JW4364 (ΔacrA mutant); assay: Killing of normal cells of efflux mutant ΔacrA; conditions: 100 μg/mL
Experimental: (§1) The mid-exponential phase cultures were collected by centrifugation at 13,000 rpm for 3 min at room temperature. The amount of cells used for each treatment was adjusted to OD600 of 0.5 in 500 μL. They were then washed with PBS (pH 7.4) three times. […] Relative viability was normalized by the untreated population. Each experimental condition was tested with five biological repeats.

[11] = system: E. coli JW5536 (ΔacrB mutant); assay: Killing of normal cells of efflux mutant ΔacrB; conditions: 100 μg/mL
Experimental: as §1

[12] = system: E. coli JW5503 (ΔtolC mutant); assay: Killing of normal cells of efflux mutant ΔtolC; conditions: 100 μg/mL
Experimental: as §1

[13] = system: E. coli HM22 persister cells; assay: LIVE/DEAD staining of persister cells during treatment and wake-up; type: cell-based, Escherichia coli; conditions: 100 μg/mL treated, washed
Experimental: . The present invention thus hypothesized that the killing effects took place during persister wake-up when the external antibiotic was withdrawn (after the treated cells were plated on antibiotic-free agar plates in this test). […] . […] .
Treated and untreated samples were washed once with PBS (pH 7.4). Cells were then immediately labeled with LIVE/DEAD BacLight bacterial viability kit (Life Technologies Inc., Carlsbad, CA) with a final concentration of 7.5 μM SYTO9 and 30 μM propidium iodide. After 15 min of staining, the cells were pelleted to remove the staining solution, re-suspended in PBS and vortexed briefly. Labeled cells were then imaged on microscope slides using an Axio Imager M1 fluorescence microscope (Axio Imager M1 fluorescence microscope, Carl Zeiss Inc., Berlin, Germany) with an Orca-Flash 4.0 LT camera (Hamamatsu Photonics, Hamamatsu City, Japan). At least 5 random spots were imaged for each sample. The mean gray value intensity was used to calculate the mean intensity generated from each channel (green and red). Each condition was tested with three biological replicates and 5 images were randomly taken from each sample.

[14] = system: E. coli HM22 normal cells; conditions: 100 μM CCCP 10 min, then 100 μg/mL minocycline 1 h
Source text: Carbonyl cyanide m-chlorophenylhydrazone (CCCP) was used to depotentiate the membrane of E. coli normal cells and thus, mimic the change in membrane potential of persister cells. CCCP dissipates the PMF by allowing protons to leak across the membrane and thus inactivate efflux pumps. […] An overnight culture of E. coli HM22 was sub-cultured in LB medium supplemented with DPA with a starting OD600 of 0.05 until OD600 reached 0.3-0.45. The mid-exponential culture was collected by centrifugation at a speed of 13,000 rpm for 3 min at room temperature. […] Each experimental condition was tested with three biological replicates.

[15] = after treatment at 100 μg/mL for 1 h

Structure (SMILES)	intracellular concentration in normal cells ([1]; after treatment at 100 μg/mL)	intracellular concentration in persister cells ([1]; after treatment at 100 μg/mL)	intracellular accumulation, persister cells relative to normal cells [1]	IC50 [2]	additional killing compared to 100 μg/mL ampicillin alone [3]	normal cells killed [6]	persister cells killed ([8]; 30 μg/mL)	persister cells killed ([8]; 50 μg/mL)	persister cells killed ([8]; 100 μg/mL)	intracellular concentration in normal cells [1, 15]	intracellular concentration in persister cells [1, 15]	other results
CN(C)[C@@H]1C(O)=C(C(N)=O)C(=O)[C@@]2(O)C(O)=C3C(=O)c4c(O)c(NC(=O)CN5CCCC5)cc(F)c4C[C@H]3C[C@@H]12 [eravacycline]	24.2 ± 1.7 µg/mL	92.1 ± 4.4 µg/mL	3.8 times	4.8 µg/mL	99.9%	63.5±15.8%	50.9±7.7%	98.2±0.5%	99.9±0.03%	–	–	Partition Coefficient [4]: 3.0 ± 0.3; killing of efflux mutants compared to the wild-type strain (in words) [5]: more killing; killing of normal cells (in words) ([6]; concentrations below 100 μg/mL (0-50 μg/mL)): no significant killing; regrowth of treated persister cells after removal of extracellular antibiotic and adding LB (in words) ([7]; OD600 / growth): unable to resume growth; decrease of CFU of treated persister cells after removal of extracellular antibiotic and addition of nutrient ([7]; over 8 hours): 97.1±0.9%; killing of persister cells in logs ([8]; 100 μg/mL): 3 log; IC50 [9]: 0.2 ± 0.1 µM
CC1(C)S[C@@H]2[C@H](NC(=O)[C@H](N)c3ccccc3)C(=O)N2[C@H]1C(=O)O [ampicillin]	–	–	–	1 µg/mL	–	–	–	–	–	–	–	–
CN(C)[C@@H]1C(O)=C(C(N)=O)C(=O)[C@@]2(O)C(O)=C3C(=O)c4c(O)cccc4[C@@](C)(O)[C@H]3C[C@@H]12 [tetracycline]	–	–	–	–	–	–	–	–	–	5.5e-06 ± 1e-07 µg/mL	1.6e-06 ± 8e-07 µg/mL	–
CN(C)c1ccc(O)c2c1C[C@H]1C[C@H]3[C@H](N(C)C)C(O)=C(C(N)=O)C(=O)[C@@]3(O)C(O)=C1C2=O [minocycline]	–	26.9 ± 0.7 µg/mL	–	–	68%	–	47.8±5.3%	59.0±6.0%	70.8±5.9%	1.04e-05 ± 2.2e-06 µg/mL	2.64e-05 ± 3.5e-06 µg/mL	intracellular concentration in persister cells after wake-up ([1]; 4 h after washing the cells and adding LB medium): 26.8 ± 3.2 pg/mL; normal cells of ΔacrA killed [10]: 98.6±0.3%; normal cells of ΔacrB killed [11]: 99.9±0.01%; normal cells of ΔtolC killed [12]: 99.7±0.03%; red/total fluorescence of treated persister cells ([13]; 0 min after adding LB): 20.2±3.3%; red/total fluorescence of treated persister cells ([13]; 30 min incubation with added LB): 37.9±3.0%; normal cells killed after CCCP pretreatment [14]: 95.9±2.5%
CO[C@H]1/C=C/O[C@@]2(C)Oc3c(C)c([O-])c4c(O)c(cc(O)c4c3C2=O)NC(=O)/C(C)=C\C=C\[C@H](C)[C@H](O)[C@@H](C)[C@@H](O)[C@@H](C)[C@H](OC(C)=O)[C@@H]1C.[Na+] [rifamycin SV]	4.3 ± 0.9 µg/mL	14.0 ± 4.5 µg/mL	3.2 times	–	–	did not kill	–	–	75.0±5.12%	–	–	–

From US20250034614A1, “PERSISTER CONTROL BY LEVERAGING DORMANCY ASSOCIATED REDUCTION OF ANTIBIOTIC EFFLUX” (Syracuse University, priority 2021, published 2025)
